According to patent publication US9200046B2, “Reporter system for high throughput screening of compounds and uses thereof” (priority 2011, dated 2015):
Where two headings read alike, the source gives them in different places.

Target: Nrf2-Keap1 complex (Homo sapiens, UniProt Q14145)
Test: cell-based
Format: cell-based
Settings: for activation at 16 µM / activation at 32 µM: 3 h; for activation at 16 µM: read-out: Activation 100 nL; for activation at 32 µM: read-out: Activation 200 nL
[1] = Table 2, 100 nL compound, screen run at 16 and 32 μM, 3 hr
[2] = Table 2, 200 nL compound, screen run at 16 and 32 μM, 3 hr
[3] = Table 1A, 100 nL compound, screen run at 16 and 32 μM, 3 hr
[4] = Table 1A, 200 nL compound, screen run at 16 and 32 μM, 3 hr

Nrf2-Keap1 complex, sequence (Q14145 whole entry, one chain of several): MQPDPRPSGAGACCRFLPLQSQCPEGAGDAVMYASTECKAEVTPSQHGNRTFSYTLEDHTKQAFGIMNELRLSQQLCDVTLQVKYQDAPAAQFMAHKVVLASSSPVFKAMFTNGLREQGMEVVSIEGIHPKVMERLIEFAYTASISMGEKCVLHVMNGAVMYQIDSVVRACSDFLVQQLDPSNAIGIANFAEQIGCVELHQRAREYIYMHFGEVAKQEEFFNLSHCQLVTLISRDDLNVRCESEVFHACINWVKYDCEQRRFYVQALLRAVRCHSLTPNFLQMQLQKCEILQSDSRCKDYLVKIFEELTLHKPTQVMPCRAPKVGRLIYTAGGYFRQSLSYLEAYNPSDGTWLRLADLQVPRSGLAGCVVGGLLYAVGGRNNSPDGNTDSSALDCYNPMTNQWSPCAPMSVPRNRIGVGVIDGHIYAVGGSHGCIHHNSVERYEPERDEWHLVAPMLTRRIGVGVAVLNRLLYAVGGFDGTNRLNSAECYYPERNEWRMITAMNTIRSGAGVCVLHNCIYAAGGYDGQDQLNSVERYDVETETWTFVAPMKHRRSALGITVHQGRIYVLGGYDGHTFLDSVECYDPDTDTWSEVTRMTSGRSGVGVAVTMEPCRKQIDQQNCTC

Structure (SMILES)	activation at 16 µM [%]	activation at 32 µM [%]	100 nL (luminescence) [1]	200 nL (luminescence) [2]	further results
CC1(C)C(=O)C=C[C@]2(C)[C@H]3CC[C@@]4(C)[C@H](c5ccoc5)OC(=O)[C@H]5O[C@]54[C@]3(C)[C@H](O)C[C@@H]12 [DEACETYLGEDUNIN]	69	-7	1412	220	
NC(=O)c1ccc(N)nc1 [6-AMINONICOTINAMIDE]	26	1			100 nL (luminescence) [3]: 756; 200 nL (luminescence) [4]: 344
CC(=O)OC1CC[C@@]2(C)C(CC[C@H]3[C@@H]4CC=C(C(C)=O)[C@@]4(C)C(=O)C[C@@H]32)C1 (stereo partly drawn) [3-ACETOXYPREGN-16-EN-12,20-DIONE]	214	30	2236	1040	
CC1=CC(=O)[C@H]2C(C)(C)CCC[C@]2(C)[C@@]1(O)CCc1ccoc1 [SOLIDAGENONE]	121	77			100 nL (luminescence) [3]: 1976; 200 nL (luminescence) [4]: 2220
O=C(O)C(S)C(S)C(=O)O (stereo not drawn) [2,3-DIMERCAPTOSUCCINICACID, reference compound]	238	123			100 nL (luminescence): 4452; 200 nL (luminescence): 2760
COc1ccc(-c2coc3cc(O)ccc3c2=O)c(O)c1O [KOPARIN]	223	11	3768	492	Neh2-luc reporter activation: > 200%
COC(=O)C1=C(C)NC(C)=C(C(=O)OC)C1c1ccccc1[N+](=O)[O-] [NIFEDIPINE, reference compound]	35	-10			
Oc1nc2cc(Cl)c(Cl)cc2nc1O [2,3-DIHYDROXY-6,7-DICHLOROQUINOXALINE]	46	109	1056	1992	
O=C1C[C@@H](c2ccc(O)c(O)c2)Oc2cc(O)cc(O)c21 [ERIODYCTOL]			1028	768	Activation 100 nL: 76%; Activation 200 nL: 18%
S=c1ccss1 [3H-1,2-DITHIOLE-3-THIONE]	295	127	5416	2832	
ClC1=C(Cl)C2(Cl)C3C(Cl)C(Cl)CC3C1(Cl)C2(Cl)Cl (stereo not drawn) [CHLORDANE]	107	135	1796	3540	
COc1cc(/C=C/CO)ccc1O [CONIFERYLALCOHOL]	125	79	2032	2264	
COc1cc(OC)c2c(=O)c(O)c(-c3ccc(OC)c(OC)c3)oc2c1			760	644	Activation 100 nL: 29%; Activation 200 nL: 8%
CC1CCC(NC(=O)N(CCCl)N=O)CC1 (stereo not drawn) [SEMUSTINE, reference compound]	39	144			100 nL (luminescence): 1172; 200 nL (luminescence): 3000
COC(=O)[C@H]1[C@H]2C[C@@H]3c4[nH]c5cc(OC)ccc5c4CCN3C[C@H]2C[C@@H](OC(=O)c2cc(OC)c(OC)c(OC)c2)[C@@H]1OC [RESERPINE, reference compound]	36	8	1120	572	
CC(C)c1ccc2c(c1)CC[C@H]1[C@](C)(C(N)=O)CCC[C@]21C [DEHYDROABIETAMIDE]	66	135			
CC(=O)O[C@@H]1CC2C(C)(C)C(=O)C3OC3[C@]2(C)C2CC[C@@]3(C)[C@H](c4ccoc4)OC(=O)C4OC43[C@@]21C (stereo partly drawn) [EPOXYGEDUNIN]			784	988	Activation 100 nL: 28%; Activation 200 nL: 43%
COc1cc([C@@H]2c3cc4c(cc3[C@H](OC(C)=O)[C@H]3COC(=O)[C@H]23)OCO4)cc(OC)c1OC [PODOPHYLLOTOXINACETATE]			900	668	Activation 100 nL: 40%; Activation 200 nL: 10%
CCC(=O)O[C@H]1[C@H](O[C@@H]2[C@@H](C)[C@H](O[C@H]3C[C@@](C)(OC)[C@@H](O)[C@H](C)O3)[C@@H](C)C(=O)O[C@H](CC)[C@@](C)(O)[C@H](O)[C@@H](C)C(=O)[C@H](C)C[C@@]2(C)O)O[C@H](C)C[C@@H]1N(C)C [ERYTHROMYCINESTOLATE, reference compound]	31	71			
OC[C@H]1O[C@H]([S-])[C@H](O)[C@@H](O)[C@@H]1O.[Au+] [AUROTHIOGLUCOSE, reference compound]			604	360	Activation 100 nL: 27%; Activation 200 nL: 1%

Structure (SMILES)	activation at 16 µM [%]	activation at 32 µM [%]	100 nL (luminescence) [1]	200 nL (luminescence) [2]	further results
CC(=O)NC(C(=O)O)C(C)(C)SN=O (stereo not drawn) [reference compound]			1044	1120	Activation 100 nL: 45%; Activation 200 nL: 52%
COc1cc(O)c(C(=O)/C=C/c2ccccc2)c(OC)c1 [FLAVOKAWAINB]	144	-21	2564	8	
CC1(C)C(=O)C=C[C@]2(C)[C@H]3CC[C@@]4(C)[C@H](c5ccoc5)OC(=O)[C@H]5O[C@]54[C@]3(C)C(=O)C[C@@H]12 [DEACETOXY-7-OXOGEDUNIN]			1048	448	Activation 100 nL: 45%; Activation 200 nL: 8%
COc1cccc(O)c1O [3-METHOXYCATECHOL]	28	-15	736	116	
NC(=O)c1ccc[n+]([C@@H]2O[C@H](COP(=O)([O-])OP(=O)(O)OC[C@H]3O[C@@H](n4cnc5c(N)ncnc54)[C@H](O)[C@@H]3O)[C@@H](O)[C@H]2O)c1 [NADIDE, reference compound]	31	16			100 nL (luminescence) [3]: 640; 200 nL (luminescence) [4]: 712
Oc1cccc2cccnc12 [8-hydroxyquinoline]					Neh2-luc reporter activation: 60%
O=C1CC(c2ccc(O)cc2)Oc2ccccc21 (stereo not drawn) [4′-HYDROXYFLAVANONE]	158	75	1752	2088	
C[C@@H]1C(=O)O[C@H]2[C@H]1CC[C@@]1(C)C=CC(=O)[C@@]3(C)O[C@@]213 [EPOXY(4,5alpha)-4,5-DIHYDROSANTONIN]			3828	3164	Activation 100 nL: 227%; Activation 200 nL: 186%
O=C(CCBr)N1CCN(C(=O)CCBr)CC1 [PIPOBROMAN, reference compound]	79	185			100 nL (luminescence): 1976; 200 nL (luminescence): 3732
CC1(C)C=CC(=O)[C@@]2(C)C1CC(=O)[C@]1(C)C2CC[C@@]2(C)[C@H](c3ccoc3)OC(=O)C3OC321 (stereo partly drawn) [DEACETOXY-7-OXISOGEDUNIN]			2960	3040	Activation 100 nL: 170%; Activation 200 nL: 178%
C[C@]12C=CC(=O)C=C1CC[C@@H]1[C@@H]2[C@@H](O)C[C@@]2(C)[C@H]1CC[C@]2(O)C(=O)CO [PREDNISOLONE, reference compound]	42	53			100 nL (luminescence): 864; 200 nL (luminescence): 1452
O=C1CN(/N=C/c2ccc([N+](=O)[O-])o2)C(=O)N1 [NITROFURANTOIN, reference compound]	30	47			
CCc1cccc(CC)c1N(COC)C(=O)CCl [ALACHLOR]	261	194	3852	4892	
COc1cc([C@@H]2c3cc4c(cc3[C@H](O)[C@H]3COC(=O)[C@@H]23)OCO4)cc(OC)c1OC [PICROPODOPHYLLOTOXIN]	32	57	848	1196	
Cc1coc2c1C(=O)C(=O)c1c-2ccc2c1CCCC2(C)C [TANSHINONEIIA]	354	87	5092	2452	
O=C(O)c1cc(O)c2c(c1)[C@@H]([C@H]1c3cc(C(=O)O)cc(O)c3C(=O)c3c(O[C@H]4O[C@H](CO)[C@@H](O)[C@H](O)[C@H]4O)cccc31)c1cccc(O[C@H]3O[C@H](CO)[C@@H](O)[C@H](O)[C@H]3O)c1C2=O [SENNOSIDEA, reference compound]	141	-24			100 nL (luminescence): 3204; 200 nL (luminescence): 4
O=S(=O)(O)CCS [MESNA, reference compound]	28	18			100 nL (luminescence): 952; 200 nL (luminescence): 612
COc1cc(C/C=C/c2ccccc2)c(OC)cc1O [VIOLASTYRENE]	133	50	2388	1096	
O=C(/C=C/c1ccccc1)c1ccc(O[C@@H]2O[C@H](CO)[C@@H](O)[C@H](O)[C@H]2O)cc1O [2′,4′-DIHYDROXYCHALCONE4′-GLUCOSIDE]			1056	2592	Activation 100 nL: 33%; Activation 200 nL: 121%
CC(C)=CCCC1(C)C=Cc2c(O)c3c(c(CC=C(C)C)c2O1)OC12C(CC4CC1C(C)(C)OC2(C/C=C(/C)C(=O)O)C4O)C3=O (stereo not drawn) [TETRAHYDROGAMBOGICACID]			5480	2748	Activation 100 nL: 383%; Activation 200 nL: 100%
